In patent publication US9458085B2, “Formulations” (priority 2010, dated 2016):
Structures can show the parent of a compound that is named as a salt. Where two headings read alike, the source gives them in different places.

What was measured:
[1] = Water solubility of solvents at 25° C. (saturated solution, chromatographic analysis); format: physicochemical
Protocol: Typically, solvents which have aqueous solubilities of about (or at least) 0.1% w/w [at the relevant temperature] can dissolve appreciably in agrochemical spray tanks under normal dilution conditions [for example, temperatures of from just above freezing to 35° C.]. […] Solvents such as acetophenone are normally formulated with an oil of much lower water solubility. […] Table 2 provides water solubilities for a number of solvents at 25° C. Saturated solutions of each solvent in deionised water were prepared by leaving excess solvent in contact with water for a period of at least two weeks. After this time a sample of the water was analysed chromatographically to determine the concentration of solvent present.

[2] = system: Alopecurus Myosuroides (ALOMY); assay: Glass house adjuvant test with pinoxaden, weed kill; format: in vivo; details: pinoxaden 7.5 g/ha + adjuvant 0.2% by volume in spray-tank, mean (standard deviation), 3 replicates
Protocol: (§1) The weed species Setaria Viridis (SETVI), Lolium Perenne (LOLPE), Avena Fatua (AVEFA) and Alopecurus Myosuroides (ALOMY) were grown under glass house conditions and sprayed with the herbicide pinoxaden at a rate of 7.5 grams of pesticide per hectare. Weeds were treated with pinoxaden in the absence of (E)-but-2-enedioic acid dibutyl ester (as a control) and also with (E)-but-2-enedioic acid dibutyl ester added to the spray-tank at a concentration of 0.2% by volume. After both 14 and 21 days the efficacy of the herbicide was assessed based on the percentage of the weeds that had been killed. Three replicates were used in all cases. The average percentage of weeds killed is quoted in Table 5 for each weed species either with the adjuvant or without (control). Results have been averaged across three replicates. The standard deviation for each result is shown in brackets after the result.

[3] = system: Avena Fatua (AVEFA); assay: as above; format: in vivo; details: pinoxaden 7.5 g/ha + adjuvant 0.2% by volume in spray-tank, mean (standard deviation), 3 replicates
Protocol: as §1

[4] = system: Lolium Perenne (LOLPE); assay: as above; format: in vivo; details: pinoxaden 7.5 g/ha + adjuvant 0.2% by volume in spray-tank, mean (standard deviation), 3 replicates
Protocol: as §1

[5] = system: Setaria Viridis (SETVI); assay: as above; format: in vivo; details: pinoxaden 7.5 g/ha + adjuvant 0.2% by volume in spray-tank, mean (standard deviation), 3 replicates
Protocol: as §1

[6] = system: Amaranthus Tuberculatus (AMATU); assay: Glass house adjuvant test with mesotrione, weed kill; format: in vivo; details: mesotrione 45 g/ha + adjuvant 0.2% v/v in spray-tank, mean (standard deviation), 3 replicates
Protocol: The weed species Polygonum Convolvulus, Digitaria Sanguinalis, Brachiaria Decumbens and Amaranthus Tuberculatus were grown under glass house conditions and sprayed with the herbicide mesotrione at rate of 45 grams of pesticide per hectare. Weeds were treated with the mesotrione in the absence of (E)-but-2-enedioic acid dibutyl ester (as a control) and also with (E)-but-2-enedioic acid dibutyl ester added to the spray-tank at a concentration of 0.2% v/v. After 14 and 21 days the efficacy of the herbicide was assessed based on the percentage of the weeds that had been killed. Three replicates were used in all cases. The performance of the solvent was assessed by averaging the three replicates at each time period and for each weed. The standard deviation for each result is shown in brackets after the average percentage weed kill.

[7] = system: Brachiaria Decumbens (BRADE); assay: as above; format: in vivo; details: mesotrione 45 g/ha + adjuvant 0.2% v/v in spray-tank, mean (standard deviation), 3 replicates
[8] = system: Digitaria Sanguinalis (DIGSA); assay: as above; format: in vivo; details: mesotrione 45 g/ha + adjuvant 0.2% v/v in spray-tank, mean (standard deviation), 3 replicates
[9] = system: Polygonum Convolvulus (POLCO); assay: as above; format: in vivo; details: mesotrione 45 g/ha + adjuvant 0.2% v/v in spray-tank, mean (standard deviation), 3 replicates
[10] = Solubility of chlorothalonil in solvents at 20° C.; format: physicochemical
[11] = solvent in deionised water, 25° C., contact at least two weeks

CCCCOC(=O)/C=C/C(=O)OCCCC [(E)-But-2-enedioic acid dibutyl ester]
% water solubility [by weight at 25° C.] [1]: 0.04 % by weight
average percentage of weeds killed, ALOMY ([2]; 14 days after application): 20(17.3) %
average percentage of weeds killed, ALOMY ([2]; 21 days after application): 33.3(15.3) %
average percentage of weeds killed, AVEFA ([3]; 14 days after application): 20(10) %
average percentage of weeds killed, AVEFA ([3]; 21 days after application): 16.7(5.8) %
average percentage of weeds killed, LOLPE ([4]; 14 days after application): 13.3(5.8) %
average percentage of weeds killed, LOLPE ([4]; 21 days after application): 6.7(5.8) %
average percentage of weeds killed, SETVI ([5]; 14 days after application): 20(0) %
average percentage of weeds killed, SETVI ([5]; 21 days after application): 20(10) %
average percentage weed kill, AMATU ([6]; 14 days after application): 76.7(5.8) %
average percentage weed kill, AMATU ([6]; 21 days after application): 94(3.6) %
average percentage weed kill, BRADE ([7]; 14 days after application): 43.3(5.8) %
average percentage weed kill, BRADE ([7]; 21 days after application): 40(0) %
average percentage weed kill, DIGSA ([8]; 14 days after application): 36.7(2.9) %
average percentage weed kill, DIGSA ([8]; 21 days after application): 41.7(7.6) %
average percentage weed kill, POLCO ([9]; 14 days after application): 80(10) %
average percentage weed kill, POLCO ([9]; 21 days after application): 80(10) %

CC(=O)c1ccccc1 [Acetophenone (methyl phenyl ketone), methyl phenyl ketone]
% water solubility [by weight at 25° C.] [1]: 0.9 % by weight

OCc1ccccc1 [Benzyl alcohol, benzene methanol, Benzyl alcohol]
% water solubility [by weight at 25° C.] [1]: 4.4 % by weight

C1CCC2CCCCC2C1 (stereo not drawn) [Decalin, decahydronaphthalene]
% water solubility [by weight at 25° C.] [1, 11]: 0.7 % by weight

CCOC(=O)/C=C/C(=O)OCC [Diethyl fumarate]
% water solubility [by weight at 25° C.] [1]: 0.8 % by weight

C=C(C)[C@H]1CC=C(C)CC1 [Dipentene, limonene]
% water solubility [by weight at 25° C.] [1, 11]: 0.098 % by weight
Chlorothalonil solubility in the solvent [10]: 0.18 percentage w/w

CCCCCCCCCCCCc1ccccc1 [Dodecylbenzene, 1-phenyldodecane]
% water solubility [by weight at 25° C.] [1]: 0.000026 % by weight

c1ccc2c(c1)CCCC2 [Tetralin, tetrahydronaphthalene]
% water solubility [by weight at 25° C.] [1, 11]: 0.18 % by weight

CC(=O)OCC(COC(C)=O)OC(C)=O [Triacetin (glycerol triacetate), glycerol triacetate]
% water solubility [by weight at 25° C.] [1]: 7.7 % by weight

dimethyl heptamide [Genagen ™ 4166 (dimethyl heptamide)]
% water solubility [by weight at 25° C.] [1, 11]: 0.7 % by weight
